From patent US20120027741A1 (priority 2009, published 2012)
Read-outs that look alike come from different tables or passages of the source.

Assays:
Type in all cases: in vivo
[1] = system: Sphaerotheca fuliginea; experiment: Sphaerotheca test (cucumbers)/protective; conditions: Podosphaera fuliginea, 168 h, 7 days after inoculation, read-out: Efficacy in % found
Protocol: Sphaerotheca Test (Cucumbers)/Protective
(§1) Solvent: • 24,5 parts by weight of acetone • 24,5 parts by weight of dimethylacetamide
(§2) Emulsifier: • 1 part by weight of alkylaryl polyglycol ether
(§3) To produce a suitable preparation of active compound, 1 part by weight of active compound is mixed with the stated amounts of solvent and emulsifier, and the concentrate is diluted with water to the desired concentration.
To test for protect activity, young plants are sprayed with the preparation of active compound at the stated rate of application. After the spray coating has dried on, the plants are inoculated with to an aqueous spore suspension of Sphaerotheca fuliginea. The plants are then placed in a greenhouse at approximately 23° C. and a relative atmospheric humidity of approximately 70%.
The test is evaluated 7 days after the inoculation. 0% means an efficacy which corresponds to that of the control, while an efficacy of 100% means that no disease is observed.

[2] = system: Phytophthora infestans; experiment: whole plant or invertebrate; conditions: Phytophthora infestans, 72 h, tomatoes, 3 days after inoculation; for pest or weed control at 0.4 ppm: 0.4 ppm a.i.; for pest or weed control at 0.125 ppm: 0.125 ppm a.i.; for pest or weed control at 0.5 ppm: 0.5 ppm a.i.
[3] = system: Botrytis cinerea; experiment: Botrytis test (beans)/protective; conditions: 48 h, 2 days after inoculation, read-out: Efficacy in % found
Protocol: Botrytis Test (Beans)/Protective
as §1, §2, §3
To test for protective activity, young plants are sprayed with the preparation of active compound. After the spray coating has dried on, 2 small pieces of agar covered with growth of Botrytis cinerea are placed on each leaf. The inoculated plants are placed in a darkened chamber at 20° C. and a relative atmospheric humidity of 100%.
2 days after the inoculation, the size of the lesions on the leaves is evaluated. 0% means an efficacy which corresponds to that of the control, while an efficacy of 100% means that no disease is observed.

[4] = system: Pythium ultimum; experiment: Pythium test (cotton)/seed treatment; conditions: Table 11, 0.1 g a.i./dt, emerged seedlings after 7 days
Protocol: Pythium Test (Cotton)/Seed Treatment
The test is performed under greenhouse conditions.
Cotton seeds, treated with the active compound or compound combinations, solved in N-methyl-2-pyrrolidon and diluted with water to the desired dosages, were sown in 6*6 cm pots containing 4 cm of a 1:1 mix of steamed field soil and sand.
Perlite was incubated with mycelium fragments of Pythium ultimum. 1 ml of infected perlite was scattered between the treated cotton seeds. Seeds were then covered by light expanded clay aggregate. Pots were incubated in the greenhouse 7 days at 20° C. and 80% relative humidity.
Assessment consisted of counting of emerged seedlings. 0% means an efficacy which to corresponds to that of the control, while an efficacy of 100% means that all seedlings have emerged.

[5] = read-out: Efficacy in % found, Table 3

## C#CCCOC(=O)Nc1cccc(CO/N=C(/c2ccccc2)c2nnnn2C)n1 [Ex. A, but-3-yn-1-yl {6-[({[(Z)-(1-methyl-1H-tetrazol-5-yl)(phenyl)methylene]amino}oxy)methyl]pyridin-2-yl}carbamate]
[1]; Table 7, 25 ppm a.i.
  pest or weed control at 25 ppm: 13%
[1]; Table 7, 50 ppm a.i.
  pest or weed control at 50 ppm: 13%
[1]; Table 7, 100 ppm a.i.
  pest or weed control at 100 ppm: 13%
[1]; Table 8, 100 ppm a.i.
  pest or weed control at 100 ppm: 0%
[2]; read-out: Efficacy in % found, Table 1, 0.1 ppm a.i.
  pest or weed control at 0.1 ppm: 7%
[2]; read-out: Efficacy in % found, Table 1, 0.2 ppm a.i.
  pest or weed control at 0.2 ppm: 23%
[2]; read-out: Efficacy in % found, Table 1
  pest or weed control at 0.4 ppm: 16%
[2]; read-out: Efficacy in % found, Table 2
  pest or weed control at 0.125 ppm: 20%
[2]; [5]
  pest or weed control at 0.125 ppm: 35%
  pest or weed control at 0.5 ppm: 74%
[2]; read-out: Efficacy in % found, Table 4
  pest or weed control at 0.4 ppm: 55%
[2]; read-out: Efficacy in % found, Table 5
  pest or weed control at 0.5 ppm: 70%
[2]; read-out: Efficacy in % found, Table 6
  pest or weed control at 0.125 ppm: 58%
[3]; Table 9, 25 ppm a.i.
  pest or weed control at 25 ppm: 15%
[3]; Table 9, 50 ppm a.i.
  pest or weed control at 50 ppm: 40%
[3]; Table 10, 50 ppm a.i.
  pest or weed control at 50 ppm: 0%
[4]
  Efficacy in % found: 30%
